Reference: the NIST ThermoML archive (doi:10.1016/j.fluid.2017.04.014)
± gives the expanded uncertainty stated by the source.

Conditions: Liquid, Closed cell (Static) method

CCO [ethanol]
Conditions | vapor or sublimation pressure [kPa]
278.6 K | 2.18 ± 0.45
283.5 K | 3.11 ± 0.5
293.4 K | 5.95 ± 0.56
298.3 K | 7.96 ± 0.7
303.2 K | 10.52 ± 0.85
308.1 K | 13.84 ± 1
313.1 K | 17.87 ± 1.2
318.1 K | 22.98 ± 1.5
322.9 K | 29.05 ± 1.9
327.9 K | 36.73 ± 2.3
332.8 K | 46.15 ± 2.6

COC(C)(C)C [2-methoxy-2-methylpropane]
Conditions | vapor or sublimation pressure [kPa]
283.6 K | 17.79 ± 1.1
288.6 K | 22.07 ± 1.2
293.5 K | 27.43 ± 1.5
298.4 K | 33.72 ± 1.8
303.3 K | 41.1 ± 2.1
308.2 K | 49.8 ± 2.4
313.1 K | 59.9 ± 2.8
318.1 K | 71.61 ± 3.3
323 K | 85.01 ± 3.8
327.9 K | 100.34 ± 4.4
332.9 K | 117.7 ± 5
337.8 K | 137.39 ± 5.4

Cc1ccccc1 [toluene]
Conditions | vapor or sublimation pressure [kPa]
278.7 K | 1.26 ± 0.41
283.6 K | 1.7 ± 0.42
288.5 K | 2.26 ± 0.43
293.4 K | 2.97 ± 0.45
298.3 K | 3.89 ± 0.47
303.2 K | 5 ± 0.5
308.1 K | 6.27 ± 0.55
313.1 K | 7.99 ± 0.62
318 K | 9.95 ± 0.68
323 K | 12.26 ± 0.77
327.9 K | 15 ± 0.9
332.8 K | 18.26 ± 1
337.8 K | 22.04 ± 1.1

CC(C)CC(C)(C)C [2,2,4-trimethylpentane]
Conditions | vapor or sublimation pressure [kPa]
283.6 K | 3.05 ± 0.46
288.4 K | 3.99 ± 0.48
293.4 K | 5.18 ± 0.51
298.3 K | 6.63 ± 0.42
298.4 K | 6.62 ± 0.42
303.3 K | 8.39 ± 0.64
308.2 K | 10.53 ± 0.7
313.1 K | 12.97 ± 0.8
318.1 K | 15.96 ± 0.94
323 K | 19.54 ± 1.1
328 K | 23.81 ± 1.3
332.8 K | 28.66 ± 1.4
